Data reported in patent US10682413B2, “Pharmaceutical forms of diazabicyclooctane derivatives and process for producing the same” (Fedora Pharmaceuticals Inc., priority 2017, dated 2020).

Assay: Decomposition of Compound (I) in aqueous solutions
Assay type: physicochemical
Source text: The present application is directed to a pharmaceutical composition of Compound (I) suitable for parenteral administration. […] Applicant discovered a lyophilisate formulation comprising a sugar and Compound (I) to afford an amorphous lyophilisate suitable for intravenous administration.

## NCCONC(=O)[C@@H]1CC[C@@H]2CN1C(=O)N2OS(=O)(=O)O [Compound (I), (2S, 5R)—N-(2-aminoethoxy)-7-oxo-6-(sulfooxy)-1,6-diazabicyclo[3.2.1]octane-2-carboxamide]
  stability in aqueous solutions: undergoes decomposition and dimerization in aqueous solutions
